This note sets out measurements from patent US11370786B2, “GLS1 inhibitors for treating disease” (Board of Regents, The University of Texas System, priority 2014, dated 2022).

The first test deals with GLS1 (purified recombinant human GAC) (Homo sapiens (Human), UniProt O94925). The test can be described thus: GLS1 Enzymatic Activity Assay (dual-coupled glutamate oxidase/HRP Amplex UltraRed). Type of test: biochemical.
GLS1 (purified recombinant human GAC), sequence (O94925 other isoform, or with tags, fused parts or gaps): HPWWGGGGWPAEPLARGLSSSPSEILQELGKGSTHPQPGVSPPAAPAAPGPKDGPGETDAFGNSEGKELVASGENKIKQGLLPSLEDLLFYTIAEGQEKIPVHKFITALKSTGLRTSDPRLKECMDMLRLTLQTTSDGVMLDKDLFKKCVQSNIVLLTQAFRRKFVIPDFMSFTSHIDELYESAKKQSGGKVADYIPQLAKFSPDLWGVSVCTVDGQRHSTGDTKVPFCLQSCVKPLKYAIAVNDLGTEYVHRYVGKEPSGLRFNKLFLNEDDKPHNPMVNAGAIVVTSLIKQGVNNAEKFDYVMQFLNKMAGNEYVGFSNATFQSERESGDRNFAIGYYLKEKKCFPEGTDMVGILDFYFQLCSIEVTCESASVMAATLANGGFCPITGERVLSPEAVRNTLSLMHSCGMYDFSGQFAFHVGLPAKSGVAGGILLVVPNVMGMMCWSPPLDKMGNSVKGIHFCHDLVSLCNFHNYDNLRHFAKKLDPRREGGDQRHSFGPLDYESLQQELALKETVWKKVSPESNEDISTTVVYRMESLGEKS
Conditions: not given
Broadly, the IC50 is the concentration that gives 50% inhibition. As to `CNC(=O)c1cn(CCCCc2ccc(NC(=O)Cc3cc(C4CC4)ccn3)nn2)nn1` [Example 190, 1-(4-{6-[2-(4-cyclopropylpyridin-2-yl)acetamido]pyridazin-3-yl}butyl)-N-methyl-1H-1,2,3-triazole-4-carboxamide], the IC50 was < 0.1 µM.

As for `O=C(Cc1cncc(OC2CC(F)(F)C2)c1)Nc1ccc(CCCCn2cc(C(=O)NCc3cc(C(F)(F)F)ccn3)nn2)nn1` [Example 230, 1-(4-(6-(2-(5-(3,3-difluorocyclobutoxy)pyridin-3-yl)acetamido)pyridazin-3-yl)butyl)-N-((4-(trifluoromethyl)pyridin-2-yl)methyl)-1H-1,2,3-triazole-4-carboxamide], the IC50 is < 0.1 µM.

With `O=C(Cc1cncc(OC2CC(F)(F)C2)c1)Nc1ccc(CCCCn2cc(C(=O)NCc3ccccn3)nn2)nn1` [Example 231, 1-(4-(6-(2-(5-(3,3-difluorocyclobutoxy)pyridin-3-yl)acetamido)pyridazin-3-yl)butyl)-N-(pyridin-2-ylmethyl)-1H-1,2,3-triazole-4-carboxamide], the IC50 is < 0.1 µM.

As for `CNC(=O)c1cn(CCCCc2ccc(NC(=O)Cc3cc(-c4ccc(F)cc4C(F)(F)F)ccn3)nn2)nn1` [Example 606, 1-(4-(6-(2-(4-(4-fluoro-2-(trifluoromethyl)phenyl)pyridin-2-yl)acetamido)pyridazin-3-yl)butyl)-N-methyl-1H-1,2,3-triazole-4-carboxamide], the IC50 was < 0.1 µM.

Take `CNC(=O)c1cn(CCCCc2ccc(NC(=O)Cc3cc(-c4cccc(OC(F)(F)F)c4F)ccn3)nn2)nn1` [Example 607, 1-(4-(6-(2-(4-(2-fluoro-3-(trifluoromethoxy)phenyl)pyridin-2-yl)acetamido)pyridazin-3-yl)butyl)-N-methyl-1H-1,2,3-triazole-4-carboxamide]: the IC50 was < 0.1 µM.

Consider `CNC(=O)c1cn(CC(F)CCc2ccc(NC(=O)Cc3cc(OC(C)C(F)(F)F)ccn3)nn2)nn1` (stereo not shown) [Example 266, 1-(2-fluoro-4-(6-(2-(4-((1,1,1-trifluoropropan-2-yl)oxy)pyridin-2-yl)acetamido)pyridazin-3-yl)butyl)-N-methyl-1H-1,2,3-triazole-4-carboxamide], for which the concentration for half-maximal inhibition (IC50) is < 0.1 µM.

As for `CNC(=O)c1cn(CCCCc2ccc(NC(=O)Cc3cc(Cl)ccn3)nn2)nn1` [Example 191, 1-(4-{6-[2-(4-chloropyridin-2-yl)acetamido]pyridazin-3-yl}butyl)-N-methyl-1H-1,2,3-triazole-4-carboxamide], the IC50 was < 0.1 µM.

As for `CNC(=O)c1cn(CCCCc2ccc(NC(=O)Cc3cncc(Br)c3)nn2)nn1` [Example 546, 1-(4-{6-[2-(5-bromopyridin-3-yl)acetamido]pyridazin-3-yl}butyl)-N-methyl-1H-1,2,3-triazole-4-carboxamide], the IC50 was < 0.1 µM.

Take `O=C(Cc1ccccn1)Nc1ccc(CCCCn2cc(C(=O)NCc3cc(C(F)(F)F)ccn3)nn2)nn1` [Example 203, 1-(4-(6-(2-(pyridin-2-yl)acetamido)pyridazin-3-yl)butyl)-N-((4-(trifluoromethyl)pyridin-2-yl)methyl)-1H-1,2,3-triazole-4-carboxamide]: the IC50 was < 0.1 µM.

On to `CNC(=O)c1cn(CCCCc2ccc(NC(=O)Cc3cc(Br)ccn3)nn2)nn1` [Example 200, 1-(4-(6-(2-(4-bromopyridin-2-yl)acetamido)pyridazin-3-yl)butyl)-N-methyl-1H-1,2,3-triazole-4-carboxamide], for which the IC50 is < 0.1 µM.

As to `CNC(=O)c1cn(CCCCc2ccc(NC(=O)Cc3cncc(OC4CC(F)(F)C4)c3)nn2)nn1` [Example 202, 1-(4-(6-(2-(5-(3,3-difluorocyclobutoxy)pyridin-3-yl)acetamido)pyridazin-3-yl)butyl)-N-methyl-1H-1,2,3-triazole-4-carboxamide], the IC50 was < 0.1 µM.

In the case of `CNC(=O)c1cn(CCCCc2ccc(NC(=O)Cc3cc(-c4cc(F)ccc4C)ccn3)nn2)nn1` [Example 609, 1-(4-(6-(2-(4-(5-fluoro-2-methylphenyl)pyridin-2-yl)acetamido)pyridazin-3-yl)butyl)-N-methyl-1H-1,2,3-triazole-4-carboxamide], the IC50 is < 0.1 µM.

Take `CNC(=O)c1cn(CCCCc2ccc(NC(=O)Cc3cc(-c4cccc(Cl)c4OC(F)(F)F)ccn3)nn2)nn1` [Example 608, 1-(4-(6-(2-(4-(3-chloro-2-(trifluoromethoxy)phenyl)pyridin-2-yl)acetamido)pyridazin-3-yl)butyl)-N-methyl-1H-1,2,3-triazole-4-carboxamide]: the IC50 is < 0.1 µM.

Regarding `CNC(=O)c1cn(CCCCc2ccc(NC(=O)Cc3ccc(Cl)nc3)nn2)nn1` [Example 544, 1-(4-{6-[2-(6-chloropyridin-3-yl)acetamido]pyridazin-3-yl}butyl)-N-methyl-1H-1,2,3-triazole-4-carboxamide], the IC50 was < 0.1 µM.

The next test relates to A549 cells. The test can be described thus: Proliferation Assay (A549 viability, Cell Titer Fluor, 72 hours). As to conditions: Homo sapiens, A549, 72 h. The class given is cell-based. The method, then: A549 cells were routinely maintained in RPMI 1640 media (Gibco catalog number 11875-093) supplemented with 10% dialyzed fetal bovine serum using a humidified incubator (37° C., 5% CO2 and ambient O2). In preparation for the viability assay, cells were inoculated into 384-well black CulturPlates (Perkin Elmer) at a density of 1000 cells/well in a volume of 40 uL. Following a 24-hour incubation at 37° C., 5% CO2 and ambient O2, cells were treated with compound ([…]) in a final DMSO concentration of 0.5% (v/v). The microplates were then incubated for 72 hours (37° C., 5% CO2 and ambient O2). Cell Titer Fluor (Promega) was subsequently added (10 uL of 6× reagent) and mixed for 15 minutes at room temperature. The plates were then incubated for 30 minutes (37° C., 5% CO2 and ambient O2) and fluorescence was subsequently read on the Perkin Elmer Envision plate reader. IC50 values were calculated using a four-parameter logistic curve fit.
One may read the EC50 as the concentration that produces a half-maximal response. Higher therefore signals a less potent agent. As to `O=C(NCc1cccc(OC(F)(F)F)c1)c1cn(CCCCn2cc(C(=O)NCc3ccc(C(F)(F)F)cn3)nn2)nn1` [Example 81, 1-{4-[4-({[3-(trifluoromethoxy)phenyl]methyl}carbamoyl)-1H-1,2,3-triazol-1-yl]butyl}-N-{[5-(trifluoromethyl)pyridin-2-yl]methyl}-1H-1,2,3-triazole-4-carboxamide], the EC50 is < 0.1 µM.

As to `O=C(NCc1cc(OC(F)(F)F)ccc1F)c1cn(CCC(F)Cn2cc(C(=O)NCc3ccccn3)nn2)nn1` (stereo not shown) [Example 369, 1-{2-fluoro-4-[4-({[2-fluoro-5-(trifluoromethoxy)phenyl]methyl}carbamoyl)-1H-1,2,3-triazol-1-yl]butyl}-N-(pyridin-2-ylmethyl)-1H-1,2,3-triazole-4-carboxamide], the EC50 was < 0.1 µM.
